# Test results as given in patent US10111435B2, “Herbicidal compositions containing N-(1,3,4-oxadiazol-2-yl)-aryl carboxylic acid amides” (BAYER CROPSCIENCE AKTIENGESELLSCHAFT, priority 2013, dated 2018).
# Experiments:
# Assay type in all cases: in vivo
# [1] = test system: Phalaris minor (PHAMI); test: greenhouse post-emergence herbicidal efficacy against PHAMI
# Description: (§1) All trials whose results are shown were conducted in a greenhouse by the methodology specified below. The effect of the inventive herbicidal compositions was examined on the following harmful plants 14 and 21 days after application:
# (§2) Echinochloa crus-galli (ECHCG), Eleusine indica (ELEIN), Setaria viridis (SETVI), Amaranthus retroflexus (AMARE), Chenopodium album (CHEAL), Kochia scoparia (KCHSC), Solanum nigrum (SOLNI), Avena fatua (AVEFA), Bromus sterilis (BROST), Lolium multiflorum (LOLMU), Phalaris minor (PHAMI), Poa annua (POAAN), Galium aparine (GALAP), Matricaria inodora (MATIN) and Polygonum convolvulus (POLCO).
# (§3) The harmful plant seeds were sown in pots (diameter 8 cm) with sandy loam soil and germinated under optimal conditions. The inventive herbicidal compositions or the active ingredients alone were applied post-emergence to the planted pots with a spray volume of 300 L/ha. The trial was conducted in a greenhouse under optimum growth conditions. The herbicidal effects were assessed visually by comparison of untreated and treated plants. The percentages mean: 0%=no effects, 100%=the plants die off completely).
# (§4) The abbreviations mean: • a.i.=active ingredient • E^C=expected value according to Colby (E^C=A+B−A×B/100) • Diff: =difference (%) of measured value from expected value (%) (measured value minus expected value)
# (§5) Assessment: • measured value E is greater than E^C:->synergism (+ diff.) • measured value E equals E^C:->additive effect • measured value E is smaller than E^C:->antagonism(− diff.)
# [2] = test system: Avena fatua (AVEFA); test: greenhouse post-emergence herbicidal efficacy against AVEFA
# Description: as §1, §2, §3, §4, §5
# [3] = test system: Poa annua (POAAN); test: greenhouse post-emergence herbicidal efficacy against POAAN
# Description: as §1, §2, §3, §4, §5
# [4] = test system: Matricaria inodora (MATIN); test: greenhouse post-emergence herbicidal efficacy against MATIN
# Description: as §1, §2, §3, §4, §5
# [5] = test system: Lolium multiflorum (LOLMU); test: greenhouse post-emergence herbicidal efficacy against LOLMU
# Description: as §1, §2, §3, §4, §5
# [6] = test system: Galium aparine (GALAP); test: greenhouse post-emergence herbicidal efficacy against GALAP
# Description: as §1, §2, §3, §4, §5
# [7] = test system: Bromus sterilis (BROST); test: greenhouse post-emergence herbicidal efficacy against BROST
# Description: as §1, §2, §3, §4, §5
# [8] = test system: Polygonum convolvulus (POLCO); test: greenhouse post-emergence herbicidal efficacy against POLCO
# Description: as §1, §2, §3, §4, §5
# [9] = 14 days after application, g of a.i./ha: A1-13 10, indaziflam 40
# [10] = 21 days after application, g of a.i./ha: A1-13 2.5, indaziflam 40
# [11] = 21 days after application, g of a.i./ha: A1-13 10, indaziflam 40
# [12] = 14 days after application, g of a.i./ha: A1-13 2.5, indaziflam 10
# [13] = 21 days after application, g of a.i./ha: A1-13 10, indaziflam 10
# [14] = 14 days after application, g of a.i./ha: A1-60 2.5, isoproturon 400
# [15] = 14 days after application, g of a.i./ha: A1-60 10, isoproturon 400
# [16] = 14 days after application, g of a.i./ha: A1-60 10, isoproturon 1600
# [17] = 21 days after application, g of a.i./ha: A1-60 2.5, isoproturon 400
# [18] = 21 days after application, g of a.i./ha: A1-60 10, isoproturon 400
# [19] = 21 days after application, g of a.i./ha: A1-60 10, isoproturon 1600
# [20] = 14 days after application, g of a.i./ha: A1-60 2.5, isoproturon 1600
# [21] = 14 days after application, 25 g of a.i./ha
# [22] = 14 days after application, 100 g of a.i./ha
# [23] = 21 days after application, g of a.i./ha: A1-14 2.5, pyrasulfotole 25
# [24] = 21 days after application, g of a.i./ha: A1-14 2.5, pyrasulfotole 100
# [25] = 21 days after application, g of a.i./ha: A1-14 10, pyrasulfotole 25
# [26] = 21 days after application, g of a.i./ha: A1-14 10, pyrasulfotole 100
# [27] = 14 days after application, g of a.i./ha: A1-7 2.5, saflufenacil 2
# [28] = 14 days after application, g of a.i./ha: A1-7 2.5, saflufenacil 8
# [29] = 21 days after application, g of a.i./ha: A1-7 10, saflufenacil 8
smiles,measurement,setting,value
Cc1ccc2c(c1)[C@H](Nc1nc(N)nc(C(C)F)n1)[C@@H](C)C2 (some centres unmarked) [indaziflam],Efficacy,"[1]; 14 days after application, g of a.i./ha: A1-13 2.5, indaziflam 40",10%
same,Efficacy,[1]; [9],10%
same,Efficacy,[1]; [10],10%
same,Efficacy,[1]; [11],10%
same,Efficacy,[2]; [10],10%
same,Efficacy,[2]; [11],10%
same,Efficacy against POAAN,"[3]; 21 days after application, dosage 10 g of a.i./ha",0%
same,Efficacy,[4]; [12],30%
same,Efficacy,"[4]; 14 days after application, g of a.i./ha: A1-13 10, indaziflam 10",30%
same,Efficacy,[5]; [13],0%
same,Efficacy,[6]; [12],50%
same,Efficacy,[6]; [9],60%
same,Efficacy against GALAP,"[6]; 21 days after application, dosage 40 g of a.i./ha",35%
same,Efficacy,[7]; [13],0%
CC(C)c1ccc(NC(=O)N(C)C)cc1 [isoproturon],Efficacy,[1]; [14],35%
same,Efficacy,[1]; [15],35%
same,Efficacy,[1]; [16],80%
same,Efficacy,[1]; [17],15%
same,Efficacy,[1]; [18],15%
same,Efficacy,[2]; [14],0%
same,Efficacy,[2]; [15],0%
same,Efficacy,[2]; [16],35%
same,Efficacy,[2]; [17],0%
same,Efficacy,[2]; [18],0%
same,Efficacy,[2]; [19],15%
same,Efficacy,[3]; [20],80%
same,Efficacy,[3]; [15],60%
same,Efficacy,[3]; [16],80%
same,Efficacy,[3]; [18],30%
same,Efficacy,[4]; [17],90%
same,Efficacy,[4]; [18],90%
same,Efficacy,[5]; [14],0%
same,Efficacy,[5]; [20],15%
same,Efficacy,[5]; [15],0%
same,Efficacy,[5]; [16],15%
same,Efficacy,[5]; [18],0%
same,Efficacy,[5]; [19],0%
same,Efficacy,[6]; [14],10%
same,Efficacy,[6]; [20],20%
same,Efficacy,[6]; [15],10%
same,Efficacy,[6]; [16],20%
same,Efficacy,[6]; [17],0%
same,Efficacy,"[6]; 21 days after application, g of a.i./ha: A1-60 2.5, isoproturon 1600",0%
same,Efficacy,[6]; [18],0%
same,Efficacy,[6]; [19],0%
same,Efficacy,[7]; [14],0%
same,Efficacy,[7]; [20],5%
same,Efficacy,[7]; [15],0%
same,Efficacy,[7]; [16],5%
same,Efficacy,[7]; [18],0%
same,Efficacy,[7]; [19],0%
Cc1nn(C)c(O)c1C(=O)c1ccc(C(F)(F)F)cc1S(C)(=O)=O [pyrasulfotole],Efficacy,[1]; [21],0%
same,Efficacy,[1]; [22],5%
same,Efficacy,[1]; [23],0%
same,Efficacy,[1]; [24],0%
same,Efficacy,[3]; [21],0%
same,Efficacy,[3]; [22],0%
same,Efficacy,[3]; [23],0%
same,Efficacy,[3]; [24],0%
same,Efficacy,[4]; [21],0%
same,Efficacy,[4]; [22],15%
same,Efficacy,[4]; [24],3%
same,Efficacy,[5]; [21],0%
same,Efficacy,[5]; [22],0%
same,Efficacy,[6]; [23],40%
same,Efficacy,[6]; [25],40%
same,Efficacy,[8]; [21],50%
same,Efficacy,[8]; [22],60%
same,Efficacy,[8]; [23],0%
same,Efficacy,[8]; [24],30%
same,Efficacy,[8]; [25],0%
same,Efficacy,[8]; [26],30%
same,Efficacy,[7]; [21],0%
same,Efficacy,[7]; [26],0%
CC(C)N(C)S(=O)(=O)NC(=O)c1cc(-n2c(=O)cc(C(F)(F)F)n(C)c2=O)c(F)cc1Cl [saflufenacil],Efficacy,[2]; [27],0%
same,Efficacy,[5]; [27],0%
same,Efficacy,[5]; [28],10%
same,Efficacy,[8]; [27],0%
same,Efficacy,[8]; [28],10%
same,Efficacy,"[8]; 14 days after application, g of a.i./ha: A1-7 10, saflufenacil 2",0%
same,Efficacy,"[8]; 14 days after application, g of a.i./ha: A1-7 10, saflufenacil 8",10%
same,Efficacy,"[8]; 21 days after application, g of a.i./ha: A1-7 2.5, saflufenacil 2",0%
same,Efficacy,"[8]; 21 days after application, g of a.i./ha: A1-7 2.5, saflufenacil 8",0%
same,Efficacy,"[8]; 21 days after application, g of a.i./ha: A1-7 10, saflufenacil 2",0%
same,Efficacy,[8]; [29],0%
same,Efficacy,[7]; [29],5%
